Source: patent US12075788B2, “Antimicrobial nano-emulsion” (Laboratoire M2, priority 2019, dated 2024)

Legend:
[1] = cited from earlier work
[2] = Rats fed 300 mg per day; cited from earlier work
[3] = concentration similar to body care products; cited from earlier work
[4] = test system: Erwinia amylovora streptomycin resistant strain (1535m5); test: Detached apple flower assay for fire blight blossom infection, streptomycin resistant strain; type: in vivo; settings: Streptomycin 17 0.6 g/L; 7 days after inoculation; FIG. 12
Description: (§1) Refrigerated dormant 2-year potted apple trees (cv Gala) were forced to bloom at room temperature in late March 2019. Fresh individual flowers were handpicked as they bloomed and placed in small vials containing 10% sucrose, ensuring their pedicels were submerged. The vials were inserted in racks that were placed in small air-tight boxes for incubation at 25° C. A thin layer of a glycerol water solution (33% w/w) in each box maintained constant humidity. Flowers were individually inoculated directly in the hypanthium with 10 μL of a 10^5 CFU/mL suspension of Erwinia amylovora in PBS with Tween 20 at 0.1% w/w. Half the flowers were inoculated with a streptomycin resistant strain (1535m5) collected in Oregon, USA, and the other half with a local streptomycin sensitive strain (435s). […] Approximately 30 minutes after inoculation, 10 randomly selected individual flowers of each strain organized in 5 blocks were flooded with 32 μL of each treatment. […] Severity scores excluding streptomycin treated flowers were analyzed with a cumulative link mixed model (clmm) in the “ordinal” package of R(Christensen 2015) using blocks as a random effect. Because of separation, data with streptomycin were analyzed with the “bract” function of the package “brglm2” under R using mean bias reduction (Kosmidis, Pagui, and Sartori 2019). […]

[5] = test system: Erwinia amylovora streptomycin sensitive strain (435s); test: Detached apple flower assay for fire blight blossom infection, streptomycin sensitive strain; type: in vivo; settings: Streptomycin 17 0.6 g/L; 7 days after inoculation; FIG. 12
Description: as §1

**Q.** Which acceptable daily intake ([1]; European Food Safety Authority (EFSA)) does the source give for `C/C=C/C=C/C(=O)[O-].[K+]` [potassium sorbate] here?
**A.** Its acceptable daily intake is 3 mg per kg of body weight per day.

**Q.** What about the “maximum acceptable daily intake for humans” value ([1]; USA) of the same molecule?
**A.** The value was 25 mg per kg of body weight per day.

**Q.** What about the effects of feeding [2] of the same molecule?
**A.** The effects of feeding was “no observed deleterious effects”.

**Q.** What about the irritation and sensitization [3] of the same molecule?
**A.** Its irritation and sensitization is “practically non-irritating and non-sensitizing”.

**Q.** For `[H]/N=C(/N)N[C@H]1[C@H](O)[C@@H](O)[C@H](O[C@@H]2O[C@@H](C)[C@](O)(C=O)[C@H]2O[C@@H]2O[C@@H](CO)[C@H](O)[C@@H](O)[C@@H]2NC)[C@@H](N/C(N)=N\[H])[C@@H]1O` [streptomycin], which “effect on fire blight on flowers” value [4] is on record?
**A.** Its value is “no effect”.

**Q.** What about the “effect on fire blight on flowers” value [5] of the same molecule?
**A.** Its value is “strongly inhibited fire blight”.
